According to patent US20060067959A1, “Compositions and methods for treatment of solar damage” (priority 2004, published 2006):

Key:
NIH 3T3 cells = test system: NIH 3T3 cells
Procedure: NIH 3T3 cells were used in these studies. Cells were cultured in 24-well plates at a density of […] in 10% FBS/DMEM overnight. […] Cells were incubated for 72 hours before cell counting and morphological studies.

bovine pericardium [1] = experiment: In vitro enzymatic degradation by collagenase, H&E histology; details: 24 h digestion, 0.5% proanthocyanidin or 0.625% GA treated, fresh tissues disintegrated
Procedure: Tissue integrity was checked at the end of the incubation using a standard histological method (hematoxylin-eosin (H&E)). […] At predetermined intervals, 1.0 mL solution was taken out and filtered through an 0.45-μM cellulose filter to separate solubilized collagen from insolubilized matrix. The amount of solubilized collagen was determined after total acid hydrolysis in 6N HCl for 24 h at 100° C. by measuring hydroxyproline (R. Kultan et al., “Collagen Treated with (+)-Catechin Becomes Resistant to the Action of Mammalian Collagenase,” Experientia 37: 221-223 (1981)). The results are expressed as a percentage of the total collagen solubilized.

bovine pericardium [2] = experiment: Melting temperature measurement of fixed pericardium; details: treated 48 hours, n = 3; PA 0.5% in PBS, GA 0.625% in PBS; untreated control 70 ± 1.0; in °C
Procedure: (§1) The fixed tissues and fresh tissues were assayed for their melting temperature by heating tissue strips (1×2 cm^2, n=3). The melting temperature was recorded when tissues started to shrink.

Fischer 344 rats = experiment: Subcutaneous implantation of treated tissue
Source text: Three-week-old Fischer 344 rats were obtained from Harlan Sprague Dawley, Inc. (Indianapolis, Ind.). NIH and University of Southern California IACUC guidelines for the care and use of laboratory animals were observed. […] The samples were retrieved after 3 and 6 weeks postoperation, and samples were processed for H&E and von Kossa staining, the latter to determine the extent of calcification.

bovine tendon = target: T1, bovine tendon (Bos taurus, UniProt P02453+P02465); experiment: Melting temperature measurement of fixed tendon; details: treated 48 hours, n = 3; PA 0.5% in PBS, GA 0.625% in PBS; untreated control 55 ± 0.5; in °C
T1 construct: Fresh bovine tendon; from tissue; host or cells: bovine tendon
T1 sequence (P02453 162-1217 limits assumed): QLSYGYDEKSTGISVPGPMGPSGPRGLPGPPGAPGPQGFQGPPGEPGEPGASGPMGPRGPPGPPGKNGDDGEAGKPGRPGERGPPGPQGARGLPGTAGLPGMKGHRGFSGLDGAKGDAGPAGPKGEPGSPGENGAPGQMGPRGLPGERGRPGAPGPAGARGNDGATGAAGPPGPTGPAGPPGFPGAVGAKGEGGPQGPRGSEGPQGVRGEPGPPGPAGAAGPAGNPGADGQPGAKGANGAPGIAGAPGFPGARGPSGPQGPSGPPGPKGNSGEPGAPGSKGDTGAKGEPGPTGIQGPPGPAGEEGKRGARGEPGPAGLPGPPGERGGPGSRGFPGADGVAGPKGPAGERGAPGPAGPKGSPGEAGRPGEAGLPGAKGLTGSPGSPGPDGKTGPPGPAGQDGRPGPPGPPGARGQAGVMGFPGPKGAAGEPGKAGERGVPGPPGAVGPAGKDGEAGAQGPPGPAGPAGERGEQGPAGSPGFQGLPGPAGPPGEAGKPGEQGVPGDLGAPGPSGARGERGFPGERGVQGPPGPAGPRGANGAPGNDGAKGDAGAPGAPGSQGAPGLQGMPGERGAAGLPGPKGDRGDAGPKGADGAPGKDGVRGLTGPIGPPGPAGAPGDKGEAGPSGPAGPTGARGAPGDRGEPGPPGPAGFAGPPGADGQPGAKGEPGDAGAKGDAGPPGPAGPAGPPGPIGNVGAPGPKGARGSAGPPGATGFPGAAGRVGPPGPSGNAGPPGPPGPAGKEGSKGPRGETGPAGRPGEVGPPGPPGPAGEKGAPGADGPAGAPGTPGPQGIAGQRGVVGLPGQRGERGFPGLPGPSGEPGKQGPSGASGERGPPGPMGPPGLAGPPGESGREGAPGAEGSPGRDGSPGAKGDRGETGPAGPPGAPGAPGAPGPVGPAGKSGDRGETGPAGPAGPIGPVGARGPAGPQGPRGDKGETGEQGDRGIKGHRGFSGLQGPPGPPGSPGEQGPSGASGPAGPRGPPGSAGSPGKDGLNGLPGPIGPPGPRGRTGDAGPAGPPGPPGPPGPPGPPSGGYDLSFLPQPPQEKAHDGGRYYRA
T1 sequence (P02465 80-1117 limits assumed): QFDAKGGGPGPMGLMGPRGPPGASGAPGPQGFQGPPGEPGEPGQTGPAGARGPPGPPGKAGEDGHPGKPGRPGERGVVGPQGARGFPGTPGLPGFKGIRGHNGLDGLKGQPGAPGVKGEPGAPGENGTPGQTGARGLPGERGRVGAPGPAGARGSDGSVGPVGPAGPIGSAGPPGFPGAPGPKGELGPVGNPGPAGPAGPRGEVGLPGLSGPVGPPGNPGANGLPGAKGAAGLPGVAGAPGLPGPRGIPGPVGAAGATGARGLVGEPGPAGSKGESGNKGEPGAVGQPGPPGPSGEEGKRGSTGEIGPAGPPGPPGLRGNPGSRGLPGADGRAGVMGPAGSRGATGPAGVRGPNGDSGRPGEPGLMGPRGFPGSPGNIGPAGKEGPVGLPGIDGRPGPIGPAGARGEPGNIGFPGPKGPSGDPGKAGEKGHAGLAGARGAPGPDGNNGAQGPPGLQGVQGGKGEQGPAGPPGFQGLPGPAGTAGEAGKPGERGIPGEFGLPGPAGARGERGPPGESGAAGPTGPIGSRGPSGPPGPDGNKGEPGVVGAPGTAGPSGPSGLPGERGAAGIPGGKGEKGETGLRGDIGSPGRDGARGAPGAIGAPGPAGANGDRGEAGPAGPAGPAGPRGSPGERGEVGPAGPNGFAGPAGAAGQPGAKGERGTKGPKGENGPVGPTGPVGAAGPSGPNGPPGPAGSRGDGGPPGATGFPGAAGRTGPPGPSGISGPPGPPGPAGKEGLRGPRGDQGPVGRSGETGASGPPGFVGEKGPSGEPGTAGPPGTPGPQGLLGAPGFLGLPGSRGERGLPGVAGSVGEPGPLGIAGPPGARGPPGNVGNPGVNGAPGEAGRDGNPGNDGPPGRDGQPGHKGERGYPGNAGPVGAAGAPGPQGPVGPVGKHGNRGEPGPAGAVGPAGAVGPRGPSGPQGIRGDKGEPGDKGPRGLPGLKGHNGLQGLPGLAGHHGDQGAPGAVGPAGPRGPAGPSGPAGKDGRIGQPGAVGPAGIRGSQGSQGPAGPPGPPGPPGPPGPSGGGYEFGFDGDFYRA
Procedure: as §1

human skin fibroblasts = experiment: Cell proliferation and collagen synthesis on treated pericardium; type: cell-based; details: discussion summary
Procedure: Discs, 15 mm in diameter, were punched out from PA-treated bovine pericardium and inserted into the bottom of 24-well plates, After washing and equilibrating with PBS, human skin fibroblasts, 8×10^4/well, third passage (kindly provided by Dr. Warren Garner, University of Southern California) were placed on top of the tissues. After 48 h of culture in 10% FBS/DMEM, the medium was changed to labeling medium ([^3H]thymidine, 10 μCi/mL, 0.5% FBS/DMEM) followed by a 24-h labeling period. Cells proliferation was assayed and collagen synthesis recorded as [^3H]OH-proline incorporation in a culture medium containing 25 μg/mL ascorbic acid, 25 μg/mL β-APN and 25 μCi/mL [^3H]proline in 0.5% FBS/DMEM after labeling for 48 h.

collagen fibril structure after collagenase digestion (bovine pericardium [1]): remained intact | calcification (Von Kossa staining) (Fischer 344 rats; rat, in vivo): dystrophic calcification | calcification after implantation (Fischer 344 rats; rat, in vivo): encourages dystrophic calcification | tissue reaction to implant (Fischer 344 rats; rat, in vivo): lesser inflammatory reaction | Melting temperature, Tendon (bovine tendon): 84 ± 1.0
SMILES: O=CCCCC=O [GA, glutaraldehyde]
cytotoxicity (FIG. 1 legend) (NIH 3T3 cells): cytotoxicity | cytotoxicity of treated tissue (NIH 3T3 cells): continues to be cytotoxic | concentration at which cells could not survive (NIH 3T3 cells; mouse, 72 h): > 600 ng/mL | Melting temperature, Pericardium (bovine pericardium [2]): 94 ± 1.5 | degradation of fixed tissue after subcutaneous implantation (Fischer 344 rats; periods ranging from 3 and 6 weeks (discussion)): no apparent degradation | implant degradation (Fischer 344 rats; six weeks postoperatively, control completely degraded): still intact | implant integrity (Fischer 344 rats; three weeks postoperatively, control tissues start to disaggregate): retain their integrity | rate of collagen synthesis of fibroblasts (human skin fibroblasts): inhibits collagen synthesis
